Results published in ChEMBL document CHEMBL4725275, “Structural basis for the stabilization of amyloidogenic immunoglobulin light chains by hydantoins” (Bioorg Med Chem Lett, 2020).
Converted amounts (≈) assume the structure as drawn. The source made the active and inactive calls. The calls are words filed in the database; no cut-off is given here.

Key:
[1] = organism: Homo sapiens; assay: Kinetic stabilization of AL patient derived recombinant full length IGLV6-57 C214S mutant assessed as induction of dimer formation at 100 uM by sedimentation velocity analytical ultracentrifugation
[2] = Solubility of the compound; assay type: physicochemical
[3] = molecular target: Immunoglobulin lambda variable 6-57 (Homo sapiens) (UniProt P01721); assay: Binding affinity to AL patient derived full length IGLV6-57 assessed as protection against proteinase K-mediated digestion by measuring fraction remaining at 100 uM measured after 2 hrs by analytical size-exclusion chromatography
Immunoglobulin lambda variable 6-57 (Homo sapiens), sequence (P01721 whole entry): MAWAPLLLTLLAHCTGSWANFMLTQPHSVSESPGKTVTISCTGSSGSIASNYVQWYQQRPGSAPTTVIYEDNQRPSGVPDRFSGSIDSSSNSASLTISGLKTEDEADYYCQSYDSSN

Structure (SMILES)	Activity [1]	solubility [2]	Activity [3]
CCN(CC)c1ccc2c(C)cc(=O)oc2c1	Active		
CC1CCCCC12NC(=O)N(CC(=O)Nc1ccc(C(F)(F)F)cc1)C2=O (stereo not given)	Active	100 µM (≈ 38.3 µg/mL)	
CC(C)C[C@@H]1NC(=O)N(CC(=O)Nc2ccc(C(F)(F)F)cc2)C1=O			Active
CC(C)C[C@H]1NC(=O)N(CC(=O)Nc2ccc(C(F)(F)F)cc2)C1=O			Active
